The data set in a line: physchem.

≈ marks a conversion by molar mass, not a printed value.

For orientation: solubility means how much of the substance goes into solution per volume. Higher therefore signals much dissolved substance. Turning to `O=C1CN(N=Cc2ccc([N+](=O)[O-])o2)C(=O)N1` [Macrocrystals, 1-[[[5-nitro-2-furanyl]methylene]amino]-2,4-imidazolidinedione], the solubility reads like this: (0.01N HCl, simulated gastric fluid) 140 µg/mL (≈ 588 µM); (0.1N HCl, simulated gastric fluid) 140 µg/mL (≈ 588 µM); (acetate buffer, pH 4.5, aqueous buffer) 50 µg/mL (≈ 210 µM); (phosphate buffer, pH 6.8, aqueous buffer) 200 µg/mL (≈ 840 µM); (phosphate buffer, pH 7.5, aqueous buffer) 620 µg/mL (≈ 2600 µM); (water) 160 µg/mL (≈ 672 µM).

Values taken from patent publication EP4285895A1, “NITROFURANTOIN ORAL DOSAGE FORM” (Adalvo Limited, priority 2022, dated 2023).
